US10588317B2, “Isoxazoline-substituted benzamides and analogues as insecticides” (priority 2015, dated 2020)
Read-outs that look alike come from different tables or passages of the source.

Key:
Type in all cases: in vivo
Spodoptera littoralis = Spodoptera littoralis (Egyptian cotton leaf worm), sprayed cotton leaf discs; conditions: foliar, 72 h, read-out: control (mortality, anti-feeding effect, growth inhibition)
Outline: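 Five first-instar larvae placed on dried cotton leaf discs (on agar) previously sprayed with aqueous dilutions of 10'000 ppm DMSO stocks. Scored at 3 days against untreated discs for mortality, feeding inhibition and growth inhibition; any category above untreated counts as control.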

Plutella xylostella = Plutella xylostella (diamond back moth), artificial diet; conditions: 120 h, read-out: effect in at least one of the two categories (mortality or growth inhibition); for percent effect (mortality or growth inhibition) at 200 ppm: application rate 200 ppm, L2 larvae, 5 days after infestation
Outline: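 L2 larvae (10-15 per well) fed on compound-treated, dried artificial diet; test solutions diluted in water from 10'000 ppm DMSO stocks. Readout 5 days post-infestation as mortality or growth inhibition versus untreated diet, with at least 80% effect at 200 ppm as threshold.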

Myzus persicae = Myzus persicae (green peach aphid): feeding/contact activity; conditions: 144 h
Description: Sunflower leaf discs were placed onto agar in a 24-well microtiter plate and sprayed with aqueous test solutions prepared from 10'000 ppm DMSO stock solutions. After drying, the leaf discs were infested with an aphid population of mixed ages. The samples were assessed for mortality 6 days after infestation.

Thrips tabaci = Thrips tabaci (onion thrips): feeding/contact activity; conditions: 144 h
Description: Sunflower leaf discs were placed on agar in 24-well microtiter plates and sprayed with aqueous test solutions prepared from 10'000 ppm DMSO stock solutions. After drying the leaf discs were infested with a Thrips population of mixed ages. The samples were assessed for mortality 6 days after infestation.

Euschistus heros = Euschistus heros (neotropical brown stink bug), sprayed soybean leaves; conditions: 120 h, read-out: effect in at least one of the two categories (mortality or growth inhibition); for percent effect (mortality or growth inhibition) at 200 ppm: application rate 200 ppm, N2 nymphs, 5 days after infestation
Outline: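 Scored 5 days post-infestation versus untreated controls, for both mortality and growth inhibition: N2 nymphs placed on agar-mounted soybean leaves previously sprayed at 200 ppm with aqueous test solutions from DMSO stocks and left to dry.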

Tetranychus urticae = Tetranychus urticae (two-spotted spider mite): feeding/contact activity; conditions: 192 h
Description: Bean leaf discs on agar in 24-well microtiter plates were sprayed with aqueous test solutions prepared from 10'000 ppm DMSO stock solutions. After drying the leaf discs were infested with a mite population of mixed ages. The samples were assessed for mortality on mixed population (mobile stages) 8 days after infestation.

Diabrotica balteata = Diabrotica balteata (corn root worm), sprayed maize sprouts; conditions: 96 h, read-out: effect in at least one of the two categories (mortality or growth inhibition); for percent effect (mortality or growth inhibition) at 200 ppm: application rate 200 ppm, L2 larvae, 4 days after infestation
Outline: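 Read-out at 4 days post-infestation: mortality and growth inhibition relative to untreated samples. Test solutions (200 ppm, from DMSO stocks) were sprayed onto agar-held maize sprouts, which after drying received 6–10 L2 larvae per well.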

[1] = application rate 200 ppm, L1 larvae, 3 days after infestation
[2] = application rate 200 ppm, aphid population of mixed ages, 6 days after infestation, read-out: mortality
[3] = application rate 200 ppm, Thrips population of mixed ages, 6 days after infestation, read-out: mortality
[4] = application rate 200 ppm, mixed population (mobile stages), 8 days after infestation, read-out: mortality

Cc1cc(C2=NO[C@@](c3cc(Cl)c(C(F)F)c(Cl)c3)(C(F)(F)F)C2)ccc1C(=O)N[C@@H]1CON(S(=O)(=O)N(C)C)C1 [Compound A196, 4-[(5S)-5-[3,5-dichloro-4-(difluoromethyl)phenyl]-5-(trifluoromethyl)-4H-1,2-oxazol-3-yl]-N-[(4S)-2-(dimethylsulfamoyl)-1,2-oxazolidin-4-yl]-2-methylbenzamide]
≥ 80%: mortality at 200 ppm (Spodoptera littoralis; [1]) | percent effect (mortality or growth inhibition) at 200 ppm (Plutella xylostella) | mortality at 200 ppm (Myzus persicae; [2]) | mortality at 200 ppm (Thrips tabaci; [3]) | percent effect (mortality or growth inhibition) at 200 ppm (Euschistus heros) | mortality at 200 ppm (Tetranychus urticae; [4]) | percent effect (mortality or growth inhibition) at 200 ppm (Diabrotica balteata)

COC(=O)N(C)S(=O)(=O)N1CC(NC(=O)c2ccc(C3=NO[C@@](c4cc(Cl)c(F)c(Cl)c4)(C(F)(F)F)C3)cc2C)CO1 (stereo partly drawn) [Compound A77, methyl N-[4-[[4-[(5S)-5-(3,5-dichloro-4-fluoro-phenyl)-5-(trifluoromethyl)-4H-isoxazol-3-yl]-2-methyl-benzoyl]amino]isoxazolidin-2-yl]sulfonyl-N-methyl-carbamate]
≥ 80%: mortality at 200 ppm (Spodoptera littoralis; [1]) | percent effect (mortality or growth inhibition) at 200 ppm (Plutella xylostella) | mortality at 200 ppm (Myzus persicae; [2]) | mortality at 200 ppm (Thrips tabaci; [3]) | percent effect (mortality or growth inhibition) at 200 ppm (Euschistus heros) | mortality at 200 ppm (Tetranychus urticae; [4]) | percent effect (mortality or growth inhibition) at 200 ppm (Diabrotica balteata)

Cc1cc(C2=NO[C@@](c3cc(Cl)cc(Cl)c3)(C(F)(F)F)C2)ccc1C(=O)N[C@@H]1CON(S(N)(=O)=O)C1 [Compound A178, 4-[(5S)-5-(3,5-dichlorophenyl)-5-(trifluoromethyl)-4H-1,2-oxazol-3-yl]-2-methyl-N-[(4S)-2-sulfamoyl-1,2-oxazolidin-4-yl]benzamide]
≥ 80%: mortality at 200 ppm (Spodoptera littoralis; [1]) | percent effect (mortality or growth inhibition) at 200 ppm (Plutella xylostella) | mortality at 200 ppm (Myzus persicae; [2]) | mortality at 200 ppm (Thrips tabaci; [3]) | percent effect (mortality or growth inhibition) at 200 ppm (Euschistus heros) | mortality at 200 ppm (Tetranychus urticae; [4]) | percent effect (mortality or growth inhibition) at 200 ppm (Diabrotica balteata)

Cc1cc(C2=NO[C@@](c3cc(Cl)c(F)c(Cl)c3)(C(F)(F)F)C2)ccc1C(=O)N[C@H]1CON(S(=O)(=O)N(C)CC(F)(F)F)C1 [Compound A150, 4-[(5S)-5-(3,5-dichloro-4-fluoro-phenyl)-5-(trifluoromethyl)-4H-isoxazol-3-yl]-2-methyl-N-[(4R)-2-[methyl(2,2,2-trifluoroethyl)sulfamoyl]isoxazolidin-4-yl]benzamide]
≥ 80%: mortality at 200 ppm (Spodoptera littoralis; [1]) | percent effect (mortality or growth inhibition) at 200 ppm (Plutella xylostella) | mortality at 200 ppm (Myzus persicae; [2]) | mortality at 200 ppm (Thrips tabaci; [3]) | percent effect (mortality or growth inhibition) at 200 ppm (Euschistus heros) | mortality at 200 ppm (Tetranychus urticae; [4]) | percent effect (mortality or growth inhibition) at 200 ppm (Diabrotica balteata)

Cc1cc(C2=NO[C@](c3cc(Cl)cc(C(F)(F)F)c3)(C(F)(F)F)C2)ccc1C(=O)N[C@H]1CON(S(=O)(=O)CF)C1 [Compound A218]
≥ 80%: mortality at 200 ppm (Spodoptera littoralis; [1]) | percent effect (mortality or growth inhibition) at 200 ppm (Plutella xylostella) | mortality at 200 ppm (Myzus persicae; [2]) | mortality at 200 ppm (Thrips tabaci; [3]) | percent effect (mortality or growth inhibition) at 200 ppm (Euschistus heros) | mortality at 200 ppm (Tetranychus urticae; [4]) | percent effect (mortality or growth inhibition) at 200 ppm (Diabrotica balteata)

CCN(C1CC1)S(=O)(=O)N1C[C@@H](NC(=O)c2ccc(C3=NO[C@@](c4cc(Cl)cc(Cl)c4)(C(F)(F)F)C3)cc2Cl)CO1 [Compound A157]
≥ 80%: mortality at 200 ppm (Spodoptera littoralis; [1]) | percent effect (mortality or growth inhibition) at 200 ppm (Plutella xylostella) | mortality at 200 ppm (Myzus persicae; [2]) | mortality at 200 ppm (Thrips tabaci; [3]) | percent effect (mortality or growth inhibition) at 200 ppm (Euschistus heros) | mortality at 200 ppm (Tetranychus urticae; [4]) | percent effect (mortality or growth inhibition) at 200 ppm (Diabrotica balteata)

Cc1cc(C2=NO[C@@](c3cc(Cl)c(F)c(Cl)c3)(C(F)(F)F)C2)ccc1C(=O)NC1CON(S(=O)(=O)N(C)S(=O)(=O)N(C)C)C1 (stereo partly drawn) [Compound A79, 4-[(5S)-5-(3,5-dichloro-4-fluoro-phenyl)-5-(trifluoromethyl)-4H-isoxazol-3-yl]-N-[2-[dimethylsulfamoyl(methyl)sulfamoyl]isoxazolidin-4-yl]-2-methyl-benzamide]
≥ 80%: mortality at 200 ppm (Spodoptera littoralis; [1]) | percent effect (mortality or growth inhibition) at 200 ppm (Plutella xylostella) | mortality at 200 ppm (Myzus persicae; [2]) | mortality at 200 ppm (Thrips tabaci; [3]) | percent effect (mortality or growth inhibition) at 200 ppm (Euschistus heros) | mortality at 200 ppm (Tetranychus urticae; [4]) | percent effect (mortality or growth inhibition) at 200 ppm (Diabrotica balteata)

Cc1cc(C2=NO[C@@](c3cc(Cl)c(F)c(Cl)c3)(C(F)(F)F)C2)ccc1C(=O)NC1CON(S(=O)(=O)C(C)C)C1 (stereo partly drawn) [Compound A17]
≥ 80%: mortality at 200 ppm (Spodoptera littoralis; [1]) | percent effect (mortality or growth inhibition) at 200 ppm (Plutella xylostella) | mortality at 200 ppm (Myzus persicae; [2]) | mortality at 200 ppm (Thrips tabaci; [3]) | percent effect (mortality or growth inhibition) at 200 ppm (Euschistus heros) | mortality at 200 ppm (Tetranychus urticae; [4]) | percent effect (mortality or growth inhibition) at 200 ppm (Diabrotica balteata)

Cc1cc(C2=NO[C@](c3cc(Cl)cc(C(F)F)c3)(C(F)(F)F)C2)ccc1C(=O)N[C@H]1CON(S(=O)(=O)N(C)C)C1 [Compound A186]
≥ 80%: mortality at 200 ppm (Spodoptera littoralis; [1]) | percent effect (mortality or growth inhibition) at 200 ppm (Plutella xylostella) | mortality at 200 ppm (Myzus persicae; [2]) | mortality at 200 ppm (Thrips tabaci; [3]) | percent effect (mortality or growth inhibition) at 200 ppm (Euschistus heros) | mortality at 200 ppm (Tetranychus urticae; [4]) | percent effect (mortality or growth inhibition) at 200 ppm (Diabrotica balteata)

CCNS(=O)(=O)N1C[C@@H](NC(=O)c2ccc(C3=NO[C@@](c4cc(Cl)c(F)c(Cl)c4)(C(F)(F)F)C3)cc2Cl)CO1 [Compound A124, 2-chloro-4-[(5S)-5-(3,5-dichloro-4-fluoro-phenyl)-5-(trifluoromethyl)-4H-isoxazol-3-yl]-N-[(4R)-2-(ethylsulfamoyl)isoxazolidin-4-yl]benzamide]
≥ 80%: mortality at 200 ppm (Spodoptera littoralis; [1]) | percent effect (mortality or growth inhibition) at 200 ppm (Plutella xylostella) | mortality at 200 ppm (Myzus persicae; [2]) | mortality at 200 ppm (Thrips tabaci; [3]) | percent effect (mortality or growth inhibition) at 200 ppm (Euschistus heros) | mortality at 200 ppm (Tetranychus urticae; [4]) | percent effect (mortality or growth inhibition) at 200 ppm (Diabrotica balteata)

Cc1cc(C2=NO[C@@](c3cc(Cl)c(Cl)c(Cl)c3)(C(F)(F)F)C2)ccc1C(=O)NC1CON(S(=O)(=O)F)C1 (stereo partly drawn) [Compound A106, 4-[[2-methyl-4-[(5S)-5-(3,4,5-trichlorophenyl)-5-(trifluoromethyl)-4H-isoxazol-3-yl]benzoyl]amino]isoxazolidine-2-sulfonyl fluoride]
≥ 80%: mortality at 200 ppm (Spodoptera littoralis) | percent control (mortality or growth inhibition) at 200 ppm (Plutella xylostella) | mortality at 200 ppm (Myzus persicae) | mortality at 200 ppm (Thrips tabaci) | percent control (mortality or growth inhibition) at 200 ppm (Euschistus heros) | mortality at 200 ppm (Tetranychus urticae) | percent control (mortality or growth inhibition) at 200 ppm (Diabrotica balteata)

CCS(=O)(=O)N1CC(NC(=O)c2ccc(C3=NO[C@@](c4cc(Cl)c(Cl)c(Cl)c4)(C(F)(F)F)C3)cc2Br)CO1 (stereo partly drawn) [Compound A43, 2-bromo-N-(2-ethylsulfonylisoxazolidin-4-yl)-4-[(5S)-5-(3,4,5-trichlorophenyl)-5-(trifluoromethyl)-4H-isoxazol-3-yl]benzamide]
≥ 80%: mortality at 200 ppm (Spodoptera littoralis; [1]) | percent effect (mortality or growth inhibition) at 200 ppm (Plutella xylostella) | mortality at 200 ppm (Myzus persicae; [2]) | mortality at 200 ppm (Thrips tabaci; [3]) | percent effect (mortality or growth inhibition) at 200 ppm (Euschistus heros) | mortality at 200 ppm (Tetranychus urticae; [4]) | percent effect (mortality or growth inhibition) at 200 ppm (Diabrotica balteata)
